Experimental data taken from patent publication US7872047B2, “Esters of long-chain alcohols and preparation thereof” (Eastman Chemical Company, priority 2008, dated 2011).

Assay: Oxidative Stability Index (OSI) accelerated oxidation test in simple skin lipid model
Settings: for onset of lipid oxidation over the untreated control (antioxidant effect): 1% idebenone, 1% or 2% idebenone linoleate in SLMM, p<0.01; for Avg. OSI (stdev) Hours at 80° C.: air bubbled, induction period, triplicate; for Calculated OSI Hours at 35° C.: estimated for 35° C. (skin surface temperature) with instrument software
From the text: Oxidation of skin lipids can contribute to an aged appearance and other undesirable effects on skin condition. A simple skin lipid model (based on fatty acids found in skin) can be used to evaluate and predict the topical effectiveness of different compounds to inhibit skin lipid oxidation and improve the condition of skin (Narayanan, S.: Hunerbein, A.: Getie, M.; Jackel, A.; Neubert, R. H. Scavenging properties of metronidazole on free oxygen radicals in a skin lipid model system. J Pharm Pharmacol. 2007 August;59(8):1125-30).
Lipid oxidation can be measured by a number of analytical methods. An accelerated oxidation test such as the Oxidative Stability Index (OSI) is accepted as a method for determining both oxidative stability of lipids as well as antioxidant effectiveness (Bartee, S. D.; Kim, H. J.; Min, D. B. Effects of antioxidants on the oxidative stability of oils containing arachidonic, docosapentaaenoic and docosahexaenoic acids. J Amer Oil Chem Soc 2007 84: 363-68.; Official methods and recommended practices of the AOCS, 5th Edition, AOCS 1998).
In this example, the OSI method was used to assess the antioxidant activity of idebenone esters by measuring their ability to inhibit lipid oxidation in a mixture of fatty acids that are present in skin lipids. The composition of the simple skin lipid model tested is 74% linoleic acid; 21% oleic acid; 4% linolenic acid. The simple skin lipid model includes a large proportion of polyunsaturated and unsaturated fatty acids, which are prone to oxidation.
The untreated sample was composed of the simple skin lipid model (fatty acid mixture). The treated samples were prepared by dissolving the test materials in the simple skin lipid model at 1 or 2 wt % at room temperature. The treated and untreated lipid matrices were oxidized by heating the test solutions to 80° C. and bubbling air through the samples. The OSI (induction period in hours) was determined using an Oxidative Stability Instrument (Omnion, Inc. Rockville Md.) and the method of Bartee et al., 2007. Untreated and treated samples were tested in triplicate, and the average and standard deviation are included in Table 1. The OSI (induction period in hours) was also estimated for oxidation at 35° C. (simulating skin surface temperature) using the software supplied with the instrument.

SMILES	onset of lipid oxidation over the untreated control (antioxidant effect)	Avg. OSI (stdev) Hours at 80° C. (1 wt % test material in SLMM)	Calculated OSI Hours at 35° C. (1 wt % test material in SLMM) [h]	Avg. OSI (stdev) Hours at 80° C. (2 wt % test material in SLMM)	Calculated OSI Hours at 35° C. (2 wt % test material in SLMM) [h]
CCCCC/C=C\C/C=C\CCCCCCCC(=O)OCCCCCCCCCCC1=C(C)C(=O)C(OC)=C(OC)C1=O [idebenone linoleate, Idebenone Linoleate]	significantly delayed the onset of lipid oxidation	2.50 (0.54) Hours	56.2	3.22 (0.67) Hours	72.4
COC1=C(OC)C(=O)C(CCCCCCCCCCO)=C(C)C1=O [idebenone, Idebenone, reference compound]	significantly delayed the onset of lipid oxidation	2.77 (0.14) Hours	62.3		
